Article PMC8578629, “Photoactivated cell-killing amino-based flavylium compounds” (Scientific Reports, 2021)

Key:
[1] = Oxygen singlet production by Singlet Oxygen Sensor Green assay; conditions: for ^1O2 production: compound 25 μM, after white light irradiation 79.2 J cm^−2
Experimental: The production of singlet oxygen by the different amino-based compounds in solution was determined as follows: a stock solution of Singlet Oxygen Sensor Green was prepared at 5 mM in methanol (MeOH). Working solutions of the probe were prepared at 2 mM in 100 mM pH 7.5 Tris buffer and in 100 mM pH 7.5 Tris buffer with 10 mM of Sodium Azide. The compounds were then prepared at a stock concentration of 500 μM and the working solutions were prepared in 100 mM pH 7.5 Tris buffer and in 100 mM pH 7.5 Tris buffer with 10 mM of Sodium Azide. 1 μL of Singlet Oxygen Sensor Green working solutions and 100 μL of compounds solution were mixed to a final volume of 1000 μL (in 100 mM pH 7.5 Tris buffer or in 100 mM pH 7.5 Tris buffer with 10 mM of Sodium Azide). 100 μL of each solution was then added to a 96-well black plate and 100 μL of Deuterium Oxide was added for a final concentration of 1 μM Singlet Oxygen Sensor Green and 25 μM for the different amino-based compounds. The fluorescence was then registered in a spectrofluorometer using excitation/emission of 488/525 nm. After this procedure, the wells were irradiated with a white light source with a total of 79.2 J cm^−2, corresponding to a total irradiation time of 1 h (6 pulses of 10 min) and then, the fluorescence determined using the same excitation/emission pair. As a positive control, Methylene Blue was used at a final concentration of 10 μM. The oxygen singlet production methodology was performed in a dark room.

[2] = tested on: HaCaT cells; assay: Cellular photoactivation assay (white light or dark, Alamar Blue); assay type: cell-based, human
Experimental: A white light LED homemade device prototype has 96 LEDs appropriately arranged on a plate of 13 cm length × 8 cm width, with a distance from the microplate surface of 8 cm. The prototype has an irradiance of 21 W m^−2 and a wavelength range of 408–707 nm (Fig. S4).
For the cellular photoactivation assays, the white light source of 21 W m^−2 was used. Briefly, cells were seed at a density of 4 × 10^4 cells/mL onto 96 –well plates and after 24 h the compounds were added to the plates in different concentrations (6.25–100 μM) and incubated for a period of 4 h at 37 °C in an atmosphere of 5% CO2 and in the presence of DMEM with 2% FBS. After this period, the medium with the compounds was removed and fresh medium (DMEM with 2% FBS without phenol red (DMEM_2% FBS_w/o_PR) was added to cells. Following this procedure, cells were submitted to light irradiation, the selected light source at a height of 8 cm, in a chamber designed to ensure the same light quantity for each well during the treatment. Cells were irradiated for 10 min at an intensity of 50%, at room temperature (making a total energy exposition of 6.6 J cm^−2). The dark treatment was prepared by placing the plates for 10 min in a dark box at room temperature. After this, the 96 well plates were placed in an incubator at 37 °C in an atmosphere of 5% CO2 for 24 h. Then, to determine cell survival the Alamar Blue assay was performed as follows: after the 24 h, 20 μL of a solution of Resazurin (0.15 mg mL^−1 in PBS filtered in 0.22 μm filters) were added to each well (making a total volume of 120 μL per well), and the plates were incubated between 4–6 h (until the development of visible color change from violet to pink). The fluorescence intensity of each well was then determined at 560/590 nm (ex/em) (FlexStation 3 Multi-Mode Microplate Reader).

[3] = tested on: HaCaT cells; assay: Reactive oxygen species production (DCF-DA); assay type: cell-based, human; conditions: 25 μM, 6.6 J cm^−2, versus control cells
Experimental: Cells reactive oxygen species (ROS) production was evaluated following the standard method. Briefly, cells were seed at a density of 4 × 10^4 cells/mL onto 96 well plates and after 24 h the compounds were added at 25 μM (non-toxic concentration) and the same previous procedure for the photoactivation assays was followed. After that, cells were washed twice in Hank’s Buffered Saline Solution (HBSS) and incubated with 100 μL of 50 μM 2′,7′-dichlorodihydrofluorescein diacetate (DCF‐DA) for 30 min in the same previous conditions. For positive control, cells were treated with 100 μM H2O2 for 30 min prior to the addition of DCF-DA. Cells were then washed twice with HBSS and incubated with fresh DMEM medium for 24 h. After this period, the fluorescence intensity at […] (ex/em) was determined in a FlexStation 3 Multi-Mode Microplate Reader.

[4] = Fluorescence quantum yield by the absolute method (integrating sphere); assay type: physicochemical; conditions: in DMSO
Experimental: Based on the absorbance maxima of the different compounds (Fig. S2), the measurement of the quantum yield (QY) of the synthesized flavylium derivatives was performed using a calibrated Quantaurus-QY stand-alone integrating sphere setup C11347-11 (Hamamatsu Photonics, Hamamatsu, Japan) equipped with an integration sphere, a monochromator, a spectrograph, a 150 W xenon light source and a silicon charge coupled device. Each compound was dissolved in DMSO and diluted to ensure an absorbance of 0.1 from the λmax of excitation forward. Each compound was then irradiated at the corresponding wavelength and the absolute quantum yield determined. The fluorescence spectra was also recorded (Fig. S3). For each compound, four independent experiments were performed.

[5] = MTT cytotoxicity assay, fibroblasts; assay type: cell-based; conditions: human, HFF-1 cells (fibroblasts), HFF-1, proliferation condition, dark
Experimental: (§1) The cytotoxicity of amino-based flavylium compounds to HFF-1 (ATCC Number: SCRC-1041) and HaCaT cells was evaluated using the standard MTT assay. Briefly, cells were seeded at a density of 8 × 10^5 and 4 × 10^4 cells/mL, respectively, in 96-well plate and incubated at 37 °C in a 5% CO2 atmosphere. Cells were allowed to grow for 24 h or until reaching monolayer confluency, and serially diluted compound solutions (6.3–100 µM) were added to the plate wells. The stock solutions of each compound were prepared at 200 mM in DMSO, the maximum % of DMSO in the cells was 0.05%. Then, cells were incubated for 48 h at 37 °C, after which the plate wells were washed once with phosphate buffered saline (PBS, Sigma-Aldrich), followed by addition of a 0.45 mg/mL MTT solution to each well. Crystals were allowed to form for 1.5 h. The reaction was stopped by rejecting the medium followed by the addition of 100 µL of DMSO (Sigma-Aldrich). The absorbance was read at 570 nm in FlexStation 3 Multi-Mode Microplate Reader (Molecular Devices, California, USA).

[6] = MTT cytotoxicity assay, keratinocytes; assay type: cell-based; conditions: human, HaCaT cells (keratinocytes), dark
Experimental: as §1

[7] = Molar absorption coefficient (ɛ) at 630 nm; assay type: physicochemical
Experimental: The molar extinction coefficient or molar absorption (ɛ), of all synthesized pigments was determined in three different solvents (ethanol, methanol and DMSO). For each pigment, in each solvent, a range of concentrations was prepared and then the spectrum of each solution was read. Finally, the respective absorbances (collected at 630 nm) were represented as a function of concentration and the ɛ value was taken from the slope value of the equation curve.

Quantum yield of fluorescence (Φf), mean ± SD [4] | Molar absorption coefficient ɛ at 630 nm ([7]; DMSO) | Molar absorption coefficient ɛ at 630 nm ([7]; Ethanol) | Molar absorption coefficient ɛ at 630 nm ([7]; Methanol) | SMILES | ^1O2 production yield, times higher (positive control) ([1]; 10 μM, same amount of light irradiation) | Reduction of cell survival upon light irradiation ([2]; applied concentration 6.25 and 12.5 μΜ) | Cell survival ([2]; either in the presence or absence of light, highest concentration tested) [%] | ROS production upon white light irradiation (in words) [3] | IC50 at 48 h [5] [µM] | IC50 at 48 h ([6]; monolayer confluence) [µM] | IC50 at 48 h ([6]; proliferation) [µM] | ^1O2 production [1] | Dark cytotoxicity to HaCaT cells (in words) ([2]; 4 h incubation, 6.25–100 μM applied, dark) | Photoactivation, dark versus white light (in words) ([2]; 4 h incubation, 6.25–100 μM applied, white light 6.6 J cm^−2)
– | – | – | – | CN(C)c1ccc2nc3ccc(=[N+](C)C)cc-3sc2c1 [methylene blue, Methylene Blue, reference compound] | about 5 fold | – | – | – | – | – | – | – | – | –
undetectable | – | – | – | CN(C)c1ccc(-c2ccc3c(O)cccc3[o+]2)cc1 [5OH4′NMe2, 5-hydroxy-4′-(dimethylamino)-benzopyrylium] | – | less than 20% | 40 | significantly increased | 47.25 ± 0.21 | 47.3 ± 0.3 | 14.9 ± 0.1 | non-significant enhancement | – | –
undetectable | 15,224 M^−1 cm^−1 | 16,422 M^−1 cm^−1 | 15,224 M^−1 cm^−1 | CN(C)c1ccc(/C=C/c2ccc3c(O)cc(O)cc3[o+]2)cc1 [5,7OHst4′NMe2, 5,7-dihydroxy-2-(4′-dimethylaminostyryl)-benzopyrylium] | – | – | – | did not modulate the production of ROS | – | – | – | non-significant enhancement | did not present significant effects | not photoactivated
